# Experimental data: patent publication US9340506B2, “Acetamide derivatives as glucokinase activators, their process and medicinal applications” (ADVINUS THERAPEUTICS LIMITED, priority 2007, dated 2016)
# Target: purified human recombinant GK (Homo sapiens (Human), UniProt P35557)
# Experiment: Glucokinase activity assay (coupled enzymatic, G6PD/NADH absorbance at 340 nm)
# Format: biochemical
# Details: for EC50: EC50 of % change in S0.5 of glucokinase for glucose, sigmoidal fit, read-out: EC50 (with respect to % ΔS0.5); for Emax: Emax of % change in S0.5 of glucokinase for glucose, vehicle S0.5 = 0%, 0 mM glucose = 100%, read-out: % Emax (with respect to % ΔS0.5)
# Excerpt: The glucokinase (GK) assay is a coupled enzymatic assay. GK catalyzes the first step of glycolysis, the conversion of glucose to glucose-6-phosphate (G6P) in the presence of ATP. G6P in turn is converted by glucose-6-phosphate dehydrogenase (G6PD) to 6-phosphogluconate, a process that requires NAD, resulting in NADH formation. Since the GK-catalyzed step is the rate-limiting step of this coupled enzymatic process, the rate of accumulation of 6-phosphogluconate and NADH is directly proportional to the rate of glucose phosphorylation by GK. The rate of the GK-catalyzed reaction can therefore be measured by monitoring the increase in NADH absorbance at 340 nm.
# The assay is carried out according to the protocol outlined in Hariharan et al (1997), Diabetes 46: 11-16. Briefly, the test compounds are incubated in a reaction mix containing 25 mM HEPES (pH 7.2), 10 mM MgCl2, 100 mM KCl, 5 mM ATP, 2 mM DTT, 0.5 mM NAD, 1 U/mL Leuconostoc mesenteroides G6PD, 0.3 U/mL of purified human recombinant GK, and different concentrations of glucose. Enzymatic activity is calculated from the initial reaction velocity, measured from the change in NADH absorbance as a function of time.
# Compounds described in formula (I), in concentration ranges from 1.0 nM to 500 μM, are tested in the purified human recombinant glucokinase assay described above.
# A compound is considered to be a glucokinase activator if it, in its testable range of concentrations, yields a higher rate of glucose phosphorylation than in its absence at a particular glucose concentration, for example at 5 mM glucose.
# Compounds of general formula (I) are tested in the in vitro GK enzymatic assay to monitor dose-dependent effect on glucokinase activation (in kinetic mode), as described above, at various glucose concentrations. The S0.5 of glucokinase for glucose at different concentration of each compound of interest is calculated from the following modified version of the Michaelis-Menten equation, V=Vmax [S]^n/(S0.5^n+[S]^n), where [S] is the glucose concentration and n is the Hill coefficient (taken as 1.7 to account for the sigoidal kinetics of glucokinase with respect to glucose). The S0.5 is plotted against the log of the compound concentration. The change in the S0.5 of glucokinase (ΔS0.5) for glucose is calculated by subtracting the S0.5 at each concentration of the compound from the S0.5 in the vehicle control. The ΔS0.5 is then normalized to a percent scale, where the S0.5 in the vehicle control is set to 0% and 0 mM glucose is set to 100%. The % ΔS0.5 is then plotted against the log of the compound concentration. The EC50 and Emax of % change in S0.5 is obtained from the sigoidal fit of the data. Detailed protocol has been described in our copending application no. 409/CHE/2007 which is incorporated herein by reference. Characterization data of some representative glucokinase activators of the present disclosure, which are illustrative but not limiting, are given in table I below.
# purified human recombinant GK, sequence (P35557 whole entry): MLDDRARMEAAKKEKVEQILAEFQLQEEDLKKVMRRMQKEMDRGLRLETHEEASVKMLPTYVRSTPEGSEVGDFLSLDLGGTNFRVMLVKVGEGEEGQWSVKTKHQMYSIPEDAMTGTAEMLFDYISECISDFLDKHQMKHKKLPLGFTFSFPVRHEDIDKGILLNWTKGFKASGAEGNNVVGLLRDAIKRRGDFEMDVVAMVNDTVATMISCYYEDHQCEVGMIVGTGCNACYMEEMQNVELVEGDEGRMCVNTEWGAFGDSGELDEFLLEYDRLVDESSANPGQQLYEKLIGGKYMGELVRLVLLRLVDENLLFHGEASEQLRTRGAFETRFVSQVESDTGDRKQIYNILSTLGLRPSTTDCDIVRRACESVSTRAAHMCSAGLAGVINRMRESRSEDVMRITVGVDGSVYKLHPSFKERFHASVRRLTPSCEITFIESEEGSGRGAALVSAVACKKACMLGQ
EC50 [nM],Emax [%],Compound
570,92,"Cc1ccc(Oc2cnc(NC(=O)C(O[C@@H]3CCOC3)c3ccc(S(=O)(=O)C4CC4)cc3)s2)cc1C(=O)O (single isomer, unassigned; (+)) [Example G11A]"
290,95,"O=C(O)c1cncc(Oc2cnc(NC(=O)C(OC3CCOCC3)c3ccc(S(=O)(=O)C4CC4)cc3)s2)c1 (single isomer, unassigned; (+)) [Example G22A, (+)5-[2-[[2-(4-cyclopropylsulfonylphenyl)-2-tetrahydropyran-4-yloxy-acetyl]amino]thiazol-5-yl]oxypyridine-3-carboxylic acid]"
140,92,"O=C(Nc1ncc(Oc2cccc(CO)c2)s1)C(OC1CCOCC1)c1ccc(S(=O)(=O)C2CC2)cc1 (stereo not shown) [Example D3, 2-(4-cyclopropylsulfonylphenyl)-N-[5-[3-(hydroxymethyl)phenoxy]thiazol-2-yl]-2-tetrahydropyran-4-yloxy-acetamide]"
260,91,"O=C(Nc1ncc(-n2cccn2)s1)C(Oc1ccc(F)cc1F)c1ccc(S(=O)(=O)C2CC2)cc1 (single isomer, unassigned; (+)) [Example G4A, (+)2-(4-cyclopropylsulfonylphenyl)-2-(2,4-difluorophenoxy)-N-(5-pyrazol-1-ylthiazol-2-yl)acetamide]"
590,94,"O=C(O)c1ccc(Oc2cnc(NC(=O)C(OC3CCOCC3)c3ccc(S(=O)(=O)C4CC4)cc3)s2)cc1Cl (stereo not shown) [Example B-20, 2-chloro-4-[2-[[2-(4-cyclopropylsulfonylphenyl)-2-tetrahydropyran-4-yloxy-acetyl]amino]thiazol-5-yl]oxy-benzoic acid]"
300,90,"O=C(O)c1cnn(-c2cnc(NC(=O)C(OC3CCOCC3)c3ccc(S(=O)(=O)C4CC4)cc3)s2)c1 (single isomer, unassigned; (+)) [Example G12A, (+)1-[2-[[2-(4-cyclopropylsulfonylphenyl)-2-tetrahydropyran-4-yloxy-acetyl]amino]thiazol-5-yl]pyrazole-4-carboxylic acid]"
950,85,"O=C(Nc1ncc(F)s1)C(OC1CCOCC1)c1ccc(S(=O)(=O)N2CCOCC2)cc1 (stereo not shown) [Example A-11, N-(5-fluorothiazol-2-yl)-2-(4-morpholinosulfonylphenyl)-2-tetrahydropyran-4-yloxy-acetamide]"
380,99,"Cc1cc(Oc2cnc(NC(=O)C(O[C@@H]3CCOC3)c3ccc(S(=O)(=O)C4CC4)cc3)s2)ccc1C(=O)O (single isomer, unassigned; (+)) [Example G14A]"
1120,90,"O=C(O)Cc1nc(NC(=O)C(OC2CCOCC2)c2ccc(S(=O)(=O)N3CCCCC3)cc2)sc1Cl (stereo not shown) [Example B-12, 2-[5-chloro-2-[[2-[4-(1-piperidylsulfonyl)phenyl]-2-tetrahydropyran-4-yloxy-acetyl]amino]thiazol-4-yl]acetic acid]"
660,88,"COc1ccc2nc(NC(=O)C(OC3CCOCC3)c3ccc(S(=O)(=O)N4CCOCC4)cc3)sc2n1 (stereo not shown) [Example A-12, N-(5-methoxythiazolo[5,4-b]pyridin-2-yl)-2-(4-morpholinosulfonylphenyl)-2-tetrahydropyran-4-yloxy-acetamide]"
1200,88,"O=C(Nc1ncc(C(O)CO)s1)C(Oc1ccc(F)cc1F)c1ccc(S(=O)(=O)C2CC2)cc1 (stereo not shown) [Example E3, 2-(4-cyclopropylsulfonylphenyl)-2-(2,4-difluorophenoxy)-N-[5-(1,2-dihydroxyethyl)thiazol-2-yl]acetamide]"
220,92,"O=C(O)c1cc(-c2ccc(Oc3cnc(NC(=O)C(OC4CCOCC4)c4ccc(S(=O)(=O)C5CC5)cc4)s3)cc2)no1 (stereo not shown) [Example B-26, 3-[4-[2-[[2-(4-cyclopropylsulfonylphenyl)-2-tetrahydropyran-4-yloxy-acetyl]amino]thiazol-5-yl]oxyphenyl]isoxazole-5-carboxylic acid]"
93,89,"Cc1cc(Oc2cnc(NC(=O)C(Oc3ccc(F)cc3F)c3ccc(S(=O)(=O)C4CC4)cc3)s2)ccc1C(=O)O (stereo not shown) [Example B-9, 4-[2-[[2-(4-cyclopropylsulfonylphenyl)-2-(2,4-difluorophenoxy)acetyl]amino]thiazol-5-yl]oxy-2-methyl-benzoic acid]"
> 10000,,"CC(C)(C)OC(=O)c1ccc(NC(=O)C(Oc2ccc(F)cc2F)c2ccc(S(=O)(=O)N3CCOCC3)cc2)nc1 (stereo not shown) [Example A-58, tert-Butyl 6-[[2-(2,4-difluorophenoxy)-2-(4-morpholinosulfonylphenyl)acetyl]amino]pyridine-3-carboxylate]"
100,95,"CCOC(=O)c1cccc(Oc2cnc(NC(=O)C(OC3CCOCC3)c3ccc(S(=O)(=O)C4CC4)cc3)s2)c1 (single isomer, unassigned; (+)) [Example G19A, (+)ethyl 3-[2-[[2-(4-cyclopropylsulfonylphenyl)-2-tetrahydropyran-4-yloxy-acetyl]amino]thiazol-5-yl]oxybenzoate]"
1400,89,"O=C(Nc1nccs1)C(OC1CCOCC1)c1ccc(S(=O)(=O)C2CC2)cc1 (stereo not shown) [Example A-1, 2-(4-Cyclopropylsulfonylphenyl)-2-tetrahydropyran-4-yloxy-N-thiazol-2-yl-acetamide]"
3700,83,"O=C(O)C1CCc2nc(NC(=O)C(OC3CCOCC3)c3ccc(S(=O)(=O)C4CC4)cc3)sc2C1 (stereo not shown) [Example B-4, 2-[[2-(4-cyclopropylsulfonylphenyl)-2-tetrahydropyran-4-yloxy-acetyl]amino]-4,5,6,7-tetrahydro-1,3-benzothiazole-6-carboxylic acid]"
480,94,"O=C(O)c1cc(Oc2cnc(NC(=O)C(OC3CCOCC3)c3ccc(S(=O)(=O)C4CC4)cc3)s2)ccc1Cl (stereo not shown) [Example B-23, 2-chloro-5-[2-[[2-(4-cyclopropylsulfonylphenyl)-2-tetrahydropyran-4-yloxy-acetyl]amino]thiazol-5-yl]oxy-benzoic acid]"
130,94,"O=C(NC1CC1)c1ccc(Oc2cnc(NC(=O)C(OC3CCOCC3)c3ccc(S(=O)(=O)C4CC4)cc3)s2)cc1 (stereo not shown) [Example C3, N-Cyclopropyl-4-[2-[[2-(4-cyclopropylsulfonylphenyl)-2-tetrahydropyran-4-yloxy-acetyl]amino]thiazol-5-yl]oxy-benzamide]"
> 10000,,"CN1CCC(OC(C(=O)Nc2ncc(F)s2)c2ccc(S(=O)(=O)C3CC3)cc2)CC1 (stereo not shown) [Example A-32, 2-(4-Cyclopropylsulfonylphenyl)-N-(5-fluorothiazol-2-yl)-2-[(1-methyl-4-piperidyl)oxy]acetamide]"
1500,93,"O=C(Nc1nc2ccc(C(O)CO)nc2s1)C(OC1CCOCC1)c1ccc(S(=O)(=O)C2CC2)cc1 (stereo not shown) [Example E2, 2-(4-Cyclopropanesulfonyl-phenyl)-N-[5-(1,2-dihydroxy-ethyl)-thiazolo[5,4-b]pyridin-2-yl]-2-(tetrahydro-pyran-4-yloxy)-acetamide]"
